Paper PMC4666608, “Metabolic Profiling of Chicken Embryos Exposed to Perfluorooctanoic Acid (PFOA) and Agonists to Peroxisome Proliferator-Activated Receptors” (PLoS ONE, 2015)
Marks after values point to notes of the source that are not given here.

Tested on: chicken embryos
Test: Metabolic profiling of allantoic fluid (GC-MS, LC-MS, OPLS-DA)
Type: in vivo, Gallus gallus domesticus
Conditions: LC; for Mean concentration relative to control, feature 155.0353@0.6447272: suggested C3H10NO4P; for Mean concentration relative to control, feature 345.0497@1.1234403: suggested C10H12N5O7P; for Mean concentration relative to control, feature 337.0259@4.4213357: suggested C13H11N3O4S2; for Mean concentration relative to control, feature 344.1427@2.1164653: suggested C13H20N4O7; for Mean concentration relative to control, feature 331.184@6.373359: suggested C13H25N5O5; for Mean concentration relative to control, feature 361.2026@5.6644735: suggested C16H31N3O4S
Experimental: Controls were injected with 20 μL vehicle only (DMSO).
Plasma was collected and stored at -70°C.
Metabolites in allantoic fluid and blood plasma were analyzed using gas chromatography-mass spectrometry (GC-MS) and liquid chromatography-mass spectrometry (LC-MS) as described in S1 Methods. Prior to GC-MS and LC-MS analysis, allantoic fluid (100 μL) and blood plasma (50 μL) were extracted. To each sample, 900 μL (allantoic fluid) or 450 μL (blood plasma) of extraction buffer (90/10 v/v methanol:water) including all internal standards were added. Standards for GC-MS were proline, succinic acid, glutamic acid, salicylic acid, alpha-ketoglutarate, putrescine, myristic acid, hexadecanoic acid, cholesterol, and sucrose. Standards for LC-MS were Val-Tyr-Val, Leu-enkephalin, sulfadimethoxine and reserpine. Samples were homogenized by shaking in a bead mill at a frequency of 30 Hz for 3 minutes and proteins were precipitated at +4°C on ice. The samples were centrifuged at +4°C, 14000 rpm, for 10 min. Then, 200 μL supernatant was transferred to a GC microvial and 200 μL was transferred to an LC microvial, and solvents were evaporated. Samples from the four replicate experiments were analyzed using in chronological order and within each replicate experiment the run order of the individual samples was randomized.
Multivariate statistical analyses of metabolite profiles were performed using the software package SIMCA-P version 13.0 (Umetrics, Umeå, Sweden). Data was centered and scaled to variance 1 (UV scaling) prior to modelling. To reduce unintended systematic variation caused by sample processing and instrument drift, GC-MS and LC-MS metabolite amounts (expressed as the area under the chromatographic peak) were normalized by Orthogonal Partial Least Squares analysis (O2PLS) prior to multivariate data analysis. O2PLS finds common (predictive) and unique (orthogonal) variation in two data matrices. If applied to find the common variation between the data matrix containing the measured metabolite concentrations and a matrix containing only the internal standards, the only common (predictive) variation expected is due to the unintended systematic variation. By deleting the contribution of the predictive latent variables, that variation can be removed from the data. Models obtained after this normalization contain in general less latent variables, and this simplification helps when deciding on the number of latent variables to be used. Following normalization, GC-MS and LC-MS data were analyzed together. Initially, a global Principal Component Analysis (PCA) was performed to get an overview of groups and trends and to identify outliers. Projections to latent structures by means of Orthogonal Partial Least Squares Discriminant Analysis (OPLS-DA) was used to model the relationship between the X-matrix (metabolite concentrations) and the Y matrix (class, i.e. exposure group or sex), and to find x-variables that were related to class belonging. OPLS-DA is a supervised prediction and regression method that rotates the projection plane to find the maximum covariance between the data and the class assignment. All groups were first analyzed together in a 5-class OPLS-DA and then each exposure group was analyzed against the control group in a 2-class OPLS-DA. Sex differences were analyzed both using the whole data set and in each group separately using 2-class OPLS-DA, with females and males as the two classes. Only variables with 80% or more nonzero values were included in the statistical models. […] The validity of each model was also checked using CV-ANOVA (ANOVA of the cross-validated residuals). A significance level of p < 0.05 was used. For each model, R ^2 X, R ^2 Y and Q ^2 values were calculated, where R ^2 X is a measure of the fraction of x variation modeled in the extracted latent variables, R ^2 Y is a measure of the fraction of y variation modeled and Q ^2 is an estimate of the predictive ability of the model and is calculated by cross-validation. […]

## O=C(O)C(F)(F)C(F)(F)C(F)(F)C(F)(F)C(F)(F)C(F)(F)C(F)(F)F [PFOA, perfluorooctanoic acid]
PFOA 50 μg/egg
  Mean concentration relative to control, feature 466.0837@2.1187525: 1.0
  Mean concentration relative to control, feature 488.0753@4.419585: 1.0
  Mean concentration relative to control, feature 498.1003@2.1184251: 1.0
  Mean concentration relative to control, feature 507.1682@2.1238236: 1.0
  Mean concentration relative to control, feature 580.1426@3.0726147: 1.0
  Mean concentration relative to control, feature 582.1578@2.1747615: 1.0
  Mean concentration relative to control, feature 588.1751@2.1182237: 1.0
  Mean concentration relative to control, feature 594.1337@3.0724604: 1.0
  Mean concentration relative to control, feature 604.1486@2.1174603: 1.0
  Mean concentration relative to control, feature 623.183@2.1249466: 0.9
  Mean concentration relative to control, feature 668.2625@6.4379454: 1.0
  Mean concentration relative to control, feature 155.0353@0.6447272: 0.4*
  Mean concentration relative to control, feature 345.0497@1.1234403: 1.1
  Mean concentration relative to control, feature 337.0259@4.4213357: 1.0
  Mean concentration relative to control, feature 344.1427@2.1164653: 1.0
  Mean concentration relative to control, feature 331.184@6.373359: 0.9
  Mean concentration relative to control, feature 361.2026@5.6644735: 0.8
PFOA 250 μg/egg
  Mean concentration relative to control, feature 134.0239@1.1350567: 0.9
  Mean concentration relative to control, feature 145.0538@3.072527: 1.1
  Mean concentration relative to control, feature 147.0328@3.0722888: 1.1
  Mean concentration relative to control, feature 160.0323@1.1950632: 1.1
  Mean concentration relative to control, feature 173.0488@3.0734746: 1.1
  Mean concentration relative to control, feature 176.0952@1.3890611: 0.5*
  Mean concentration relative to control, feature 178.0428@1.7582192: 1.0
  Mean concentration relative to control, feature 180.0048@4.421465: 1.0
  Mean concentration relative to control, feature 189.1159@1.9209185: 0.9
  Mean concentration relative to control, feature 197.0639@2.1181405: 1.0
  Mean concentration relative to control, feature 201.012@3.046474: 1.1
  Mean concentration relative to control, feature 202.0429@2.9548414: 1.0
  Mean concentration relative to control, feature 205.0533@4.421879: 1.0
  Mean concentration relative to control, feature 214.016@2.1190732: 0.9
  Mean concentration relative to control, feature 226.0107@4.421457: 1.0
  Mean concentration relative to control, feature 236.0816@3.0720985: 1.1
  Mean concentration relative to control, feature 241.0551@2.3510706: 1.0
  Mean concentration relative to control, feature 243.1118@2.1537287: 1.0
  Mean concentration relative to control, feature 244.9972@4.421603: 1.0
  Mean concentration relative to control, feature 245.1563@2.2907295: 0.9
  Mean concentration relative to control, feature 250.0981@3.072492: 1.1
  Mean concentration relative to control, feature 262.0978@2.7961144: 1.1
  Mean concentration relative to control, feature 263.0855@2.2847009: 1.0
  Mean concentration relative to control, feature 270.0441@1.1407775: 1.0
  Mean concentration relative to control, feature 278.0928@3.0723689: 1.1
  Mean concentration relative to control, feature 279.1248@2.796395: 1.2
  Mean concentration relative to control, feature 280.1425@2.730277: 1.0
  Mean concentration relative to control, feature 288.1166@2.9551322: 1.2
  Mean concentration relative to control, feature 289.1012@3.249983: 1.0
  Mean concentration relative to control, feature 289.173@7.5030584: 1.2
  Mean concentration relative to control, feature 294.1242@2.3692534: 1.0
  Mean concentration relative to control, feature 302.0508@3.0722616: 1.1
  Mean concentration relative to control, feature 305.1682@5.353517: 0.5***
  Mean concentration relative to control, feature 305.1684@5.2955093: 0.7**
  Mean concentration relative to control, feature 308.073@4.4211636: 1.0
  Mean concentration relative to control, feature 310.1181@1.5090439: 1.0
  Mean concentration relative to control, feature 316.0389@3.0725708: 1.1
  Mean concentration relative to control, feature 320.0626@3.0729218: 1.1
  Mean concentration relative to control, feature 325.1114@2.1190624: 1.1
  Mean concentration relative to control, feature 325.1115@2.3554378: 1.1
  Mean concentration relative to control, feature 333.1335@2.8639288: 0.9
  Mean concentration relative to control, feature 333.2005@6.5291867: 0.8*
  Mean concentration relative to control, feature 335.1866@4.508565: 0.9
  Mean concentration relative to control, feature 337.1651@1.8737898: 0.9
  Mean concentration relative to control, feature 344.1424@2.348947: 1.0
  Mean concentration relative to control, feature 348.0553@3.0730357: 1.1
  Mean concentration relative to control, feature 349.1651@2.4087605: 0.9
  Mean concentration relative to control, feature 357.1997@6.9691257: 0.9
  Mean concentration relative to control, feature 371.1513@3.0009465: 1.2
  Mean concentration relative to control, feature 375.1819@3.672254: 0.9
  Mean concentration relative to control, feature 394.167@3.9552917: 1.0
  Mean concentration relative to control, feature 414.1482@2.118972: 1.1
  Mean concentration relative to control, feature 466.0837@2.1187525: 1.1
  Mean concentration relative to control, feature 488.0753@4.419585: 1.0
  Mean concentration relative to control, feature 498.1003@2.1184251: 1.0
  Mean concentration relative to control, feature 507.1682@2.1238236: 1.0
  Mean concentration relative to control, feature 580.1426@3.0726147: 1.2
  Mean concentration relative to control, feature 582.1578@2.1747615: 1.2
  Mean concentration relative to control, feature 588.1751@2.1182237: 1.1
  Mean concentration relative to control, feature 594.1337@3.0724604: 1.2
  Mean concentration relative to control, feature 604.1486@2.1174603: 1.0
  Mean concentration relative to control, feature 623.183@2.1249466: 1.1
  Mean concentration relative to control, feature 668.2625@6.4379454: 1.0
  Mean concentration relative to control, feature 155.0353@0.6447272: 0.3*
  Mean concentration relative to control, feature 345.0497@1.1234403: 1.1
  Mean concentration relative to control, feature 337.0259@4.4213357: 1.0
  Mean concentration relative to control, feature 344.1427@2.1164653: 1.0
  Mean concentration relative to control, feature 331.184@6.373359: 0.7**
  Mean concentration relative to control, feature 361.2026@5.6644735: 0.9
